Here are results for two molecules from ChEMBL document CHEMBL1155752, “Isolation and structure of korolkoside, a bis-iridoid glucoside from Lonicera korolkovii” (J Nat Prod, 2001).

Data set [1] has as its system Mus musculus. Kind of data set: Acute toxicity in ddY mouse at 38 mg/mouse, ip assessed as death after 12 hrs. In kind it is organism-based. As to conditions: in vivo.
Data set [2] concerns Mus musculus. Kind of data set: Acute toxicity in ddY mouse at 2 mg/mouse, ip assessed as death after 12 hrs. The conditions noted are these: in vivo. In kind it is organism-based.

Structures are written as SMILES.

For `C=C[C@H]1[C@H](O[C@@H]2O[C@H](CO)[C@@H](O)[C@H](O)[C@H]2O)OC=C(C(=O)OC)[C@H]1CC(OC)OC` [SECOLOGANIN DIMETHYL ACETAL], in data set [1], the Activity entry was “Non-toxic”. `C=C[C@H]1[C@H](O[C@@H]2O[C@H](CO)[C@@H](O)[C@H](O)[C@H]2O)OC=C(C(=O)OC)[C@H]1C[C@@H]1OC[C@H]2O[C@@H](O[C@@H]3OC=C(C(=O)OC)[C@@H](CC(OC)OC)[C@H]3C=C)[C@H](O)[C@@H](O)[C@@H]2O1` [KOROLKOSIDE]: the Activity entry in data set [2] is on record as “Non-toxic”.
